Test results taken from patent US20220305003A1, “METHODS OF TREATING CANCER WITH AN INHIBITOR OF ZNF827” (CHILDREN'S MEDICAL RESEARCH INSTITUTE, priority 2019, published 2022).

Key:
[1] = test system: HT1080 and HT1080 6TG cells; experiment: γH2AX and ZNF827 foci by immunofluorescence; conditions: topotecan 2 μg/mL 24 hr vs unchallenged
[2] = test system: HT1080 cells; experiment: Sister chromatid exchange (SCE) assay in HT1080; assay type: cell-based; conditions: 72 hr siRNA knockdown of ZNF827, topotecan 2 μg/mL 1 hr
Description: For the SCE assay, 20-25% confluent cells were cultured in fresh media supplemented with 7.5 μM […] (BrdU) and 2.5 μM BrdC (BrdU:BrdC 3:1 ratio; Sigma-Aldrich) for 32-48 hours depending on the mitotic index of the cell line. Cell cultures were treated with 100 ng/mL colcemid for the last 4 hours of incubation to accumulate mitotic cells. Cells were harvested by trypsinisation and centrifugation, and then incubated in hypotonic buffer for 10 minutes at 37° C. Swollen cells were fixed by gradually adding 1 mL of fresh ice-cold fixative (methanol/acetic acid 3:1), mixing by inversion and incubating on ice for 5 minutes. Cells were then collected by centrifugation at 1200 rpm for 8 minutes. 10 mL ice cold fixative was added to resuspend the cells followed by 5 minutes incubation on ice and centrifugation at 1200 rpm for 8 minutes. This fixing step was repeated another two times. Fixed cells were then resuspended in 500-1000 μL of ice-cold fixative, and dropped onto clean, dry microscope slides (HDS Surefrost, 50-100 μL cell solution per slide). To drop chromosomes, a clean dry slide was held over a 75° C. water bath, and the cell solution was dropped from a pipette onto the slide, which was quickly flipped and held close to the surface of the water bath for 5 seconds. […]

**Q.** What does the source list for `CC[C@@]1(O)C(=O)OCc2c1cc1n(c2=O)Cc2cc3c(CN(C)C)c(O)ccc3nc2-1` [topotecan]?
**A.** ZNF827 foci induction [1]: striking induction of ZNF827; γH2AX foci induction [1]: efficiently induced γH2AX foci

**Q.** Which “sister chromatid exchanges (SCEs)” value [2] does the source give for “siZNF827: Stealth RNAi siRNA ZNF827HSS135819 duplex oligoribonucleotides (Invitrogen), SEQ ID NO: 12 and 13 (chain 1 GGGCAGUCUUCUGGCUGAGAAAUCA; chain 2 UGAUUUCUCAGCCAGAAGACUGCCC; listed as RNA, further chemistry not given here)” here?
**A.** suppression of SCEs
